Test results: patent US3968102A, “S-substituted-2-thioadenosines” (Kohjin Co., Ltd., priority 1974, dated 1976)
Read-outs that look alike come from different tables or passages of the source.

Columns and labels:
[1] = system: rabbit platelet-rich plasma (ADP-induced platelet aggregation); assay: Inhibition of 10^-5 M ADP-induced platelet aggregation in rabbit platelet-rich plasma; assay type: cell-based; conditions: for inhibition at 10 µM / inhibition at 100 µM: Oryctolagus cuniculus, Platelet, 0.05 h; for inhibition at 10 µM: compound 10^-5 M; for inhibition at 100 µM: read-out: Inhibition (%) 10^-5 M ADP-Induced Aggregation
[2] = system: rabbit platelet-rich plasma (collagen-induced platelet aggregation); assay: Inhibition of collagen-induced platelet aggregation in rabbit platelet-rich plasma; assay type: cell-based; conditions: 3 minute incubation; for inhibition at 10 µM / inhibition at 100 µM: Oryctolagus cuniculus, Platelet, 0.05 h; for inhibition at 10 µM: compound 10^-5 M
pKa = assay type: physicochemical
platelet aggregation = conditions: cited from earlier work
[3] = system: platelet-rich plasma (platelet aggregation); assay: Persistence of platelet aggregation inhibitory activity on incubation with platelet-rich plasma; assay type: cell-based, rabbit
Experimental: The platelet aggregation inhibitory activity of representative compounds of the formula (I) were determined in terms of the percent inhibitory activity against 10-^5 M adenosine-5'-diphosphate (hereinafter referred to as "ADP")-induced or collagen-induced platelet aggregation in rabbit platelet-rich plasma according to the procedure described by G. V. R. Born and M. J. Cross in Journal of Physiology, Vol. 168, p. 178 (1963). […]

[4] = solvent DMSO, 3 minute incubation
[5] = compound 10^-4 M, solvent DMSO, 3 minute incubation
[6] = compound 10^-4 M, solvent PSS, 3 minute incubation
[7] = J. Med. Chem., Vol. 16, No. 12, 1381-1388 (1973)

| SMILES | inhibition at 100 µM [1, 5] | inhibition at 100 µM ([2]; compound 10^-4 M, solvent DMSO) | inhibition at 100 µM [1, 6] | inhibition at 100 µM ([2]; compound 10^-4 M, solvent PSS) | further results |
| --- | --- | --- | --- | --- | --- |
| Cc1ccccc1Sc1nc(N)c2ncn([C@@H]3O[C@H](CO)[C@@H](O)[C@H]3O)c2n1 [2-(o-Tolyl)thioadenosine] | – | – | – | – | inhibition at 10 µM [1, 4]: 61%; inhibition at 10 µM ([2]; solvent DMSO): 57% |
| Nc1nc(Sc2ccc([N+](=O)[O-])cc2)nc2c1ncn2[C@@H]1O[C@H](CO)[C@@H](O)[C@H]1O [2-(p-Nitrophenyl)thioadenosine] | 92% | 81% | – | – | – |
| Nc1nc(SC2C3CC4CC(C3)CC2C4)nc2c1ncn2[C@@H]1O[C@H](CO)[C@@H](O)[C@H]1O (stereo partly drawn) [2-(β-Adamantyl)thioadenosine] | 95% | 72% | – | – | inhibition at 10 µM [1, 4]: 72%; inhibition at 10 µM ([2]; solvent DMSO): 61% |
| Nc1nc(SCCO)nc2c1ncn2[C@@H]1O[C@H](CO)[C@@H](O)[C@H]1O [2-(β-Hydroxyethyl)thioadenosine] | – | – | 52% | 30% | – |
| Nc1nc(SC2CC3CCC2C3)nc2c1ncn2[C@@H]1O[C@H](CO)[C@@H](O)[C@H]1O (stereo partly drawn) [2-(β-Norbornyl)thioadenosine] | 89% | 69% | – | – | inhibition at 10 µM [1, 4]: 62%; inhibition at 10 µM ([2]; solvent DMSO): 51% |
| Nc1nc(Sc2cccnc2)nc2c1ncn2[C@@H]1O[C@H](CO)[C@@H](O)[C@H]1O [2-(β-Pyridyl)thioadenosine] | – | – | – | – | Inhibition (%) 10^-5 M ADP-Induced Aggregation [1, 6]: 61%; Inhibition (%) Collagen-Induced Aggregation ([2]; compound 10^-4 M, solvent PSS): 52% |
| Nc1nc(SCCCO)nc2c1ncn2[C@@H]1O[C@H](CO)[C@@H](O)[C@H]1O [2-(γ-Hydroxypropyl)thioadenosine] | – | – | 58% | 52% | – |
| CSc1nc(N)c2ncn([C@@H]3O[C@H](CO)[C@@H](O)[C@H]3O)c2n1 [2-Methylthioadenosine, reference compound] | – | – | 12% | 25% | – |
| Nc1nc(Sc2ccccc2)nc2c1ncn2[C@@H]1O[C@H](CO)[C@@H](O)[C@H]1O [2-Phenylthioadenosine] | 98% | 82% | – | – | inhibition at 10 µM [1, 4]: 62%; inhibition at 10 µM ([2]; solvent DMSO): 58% |
| CCCSc1nc(N)c2ncn([C@@H]3O[C@H](CO)[C@@H](O)[C@H]3O)c2n1 [2-Propylthioadenosine, reference compound] | – | – | 16% | – | – |
| Nc1nc(S)nc2c1ncn2[C@@H]1O[C@H](CO)[C@@H](O)[C@H]1O [2-Thioadenosine] | – | – | 10% | 36% | pKa (pKa): 7.8; inhibitory activity in ADP-induced platelet aggregation (platelet aggregation; [7]): only a weak inhibitory activity; inhibitory activity in collagen-induced platelet aggregation (platelet aggregation; [7]): only a weak inhibitory activity |
| CSc1nc(N)c2ncn([C@@H]3O[C@H](COP(=O)(O)O)[C@@H](O)[C@H]3O)c2n1 [2-methylthioadenosine-5'-monophosphate] | – | – | – | – | platelet aggregation inhibitory activity (prior art) (platelet aggregation; in words): only a weak platelet aggregation inhibitory activity |
| Nc1ncnc2c1ncn2[C@@H]1O[C@H](CO)[C@@H](O)[C@H]1O [Adenosine] | 76% | 68% | 80% | 71% | inhibition at 10 µM ([1]; solvent PSS, 3 minute incubation): 58%; inhibition at 10 µM ([2]; solvent PSS): 51%; inhibitory activity after 60 minutes of incubation with the platelet-rich plasma ([3]; 60 minutes of incubation): disappears completely after 60 minutes of incubation; inhibitory activity (control) ([3]; in words, from Table 1): fairly potent inhibitory activity |
| CSc1nc(N)c2ncn([C@@H]3O[C@H](COP(=O)(O)O)[C@@H](O)[C@H]3O)c2n1 [Ammonium 2-Methylthioadenosine-5'-monophosphate, reference compound] | – | – | – | – | inhibition at 100 µM [1]: 35% |
| Nc1ncnc2c1ncn2[C@@H]1O[C@H](COP(=O)(O)O)[C@@H](O)[C@H]1O [Ammonium Adenosine-5'-monophosphate, reference compound] | – | – | 5% | – | – |
